Assay results as given in ChEMBL document CHEMBL5608186, “Design, synthesis and structure-activity relationships of novel non-ketolides: 9-Oxime clarithromycin featured with seven-to thirteen-atom-length diamine linkers at 3-OH” (Eur J Med Chem, 2024).
≈ marks a conversion by molar mass, not a printed value.

Assays:
Assay type in all cases: functional
[1] = tested on: Staphylococcus aureus; assay: Bactericidal activity against methicillin-resistant Staphylococcus aureus PU 20 harboring c-ermA gene incubated for 16 to 20 hrs by CLSI based broth microdilution method; details: time 16-20 hrs
[2] = tested on: Staphylococcus aureus; assay: Antibacterial activity against methicillin-resistant Staphylococcus aureus PU 20 harboring c-ermA gene incubated for 16 to 20 hrs by CLSI based broth microdilution method; details: time 16-20 hrs
[3] = tested on: Staphylococcus aureus; assay: Selectivity ratio of MBC for methicillin-resistant Staphylococcus aureus PU 32 harboring i-ermA gene to MIC for methicillin-resistant Staphylococcus aureus PU 32 harboring i-ermA gene
[4] = tested on: Staphylococcus aureus; assay: Bactericidal activity against methicillin-resistant Staphylococcus aureus PU 32 harboring i-ermA gene incubated for 16 to 20 hrs by CLSI based broth microdilution method; details: time 16-20 hrs
[5] = tested on: Staphylococcus aureus; assay: Antibacterial activity against methicillin-resistant Staphylococcus aureus PU 32 harboring i-ermA gene incubated for 16 to 20 hrs by CLSI based broth microdilution method; details: time 16-20 hrs
[6] = tested on: Streptococcus pyogenes; assay: Selectivity ratio of MBC for Streptococcus pyogenes 01-968 harboring i-ermB gene to MIC for Streptococcus pyogenes 01-968 harboring i-ermB gene
[7] = tested on: Streptococcus pyogenes; assay: Bactericidal activity against Streptococcus pyogenes 01-968 harboring i-ermB gene incubated for 16 to 20 hrs by CLSI based broth microdilution method; details: time 16-20 hrs
[8] = tested on: Streptococcus pyogenes; assay: Antibacterial activity against Streptococcus pyogenes 01-968 harboring i-ermB gene incubated for 16 to 20 hrs by CLSI based broth microdilution method; details: time 16-20 hrs
[9] = tested on: Haemophilus influenzae; assay: Selectivity ratio of MBC for Haemophilus influenzae ATCC 49247 to MIC for Haemophilus influenzae ATCC 49247
[10] = tested on: Haemophilus influenzae; assay: Bactericidal activity against Haemophilus influenzae ATCC 49247 incubated for 16 to 20 hrs by CLSI based broth microdilution method; details: time 16-20 hrs
[11] = tested on: Haemophilus influenzae; assay: Antibacterial activity against Haemophilus influenzae ATCC 49247 incubated for 16 to 20 hrs by CLSI based broth microdilution method; details: time 16-20 hrs
[12] = tested on: Streptococcus pneumoniae; assay: Selectivity ratio of MBC for Streptococcus pneumoniae 07P390 harboring c-erm gene to MIC for Streptococcus pneumoniae 07P390 harboring c-erm gene
[13] = tested on: Streptococcus pneumoniae; assay: Bactericidal activity against Streptococcus pneumoniae 07P390 harboring c-erm gene incubated for 16 to 20 hrs by CLSI based broth microdilution method; details: time 16-20 hrs
[14] = tested on: Streptococcus pneumoniae; assay: Antibacterial activity against Streptococcus pneumoniae 07P390 harboring c-erm gene incubated for 16 to 20 hrs by CLSI based broth microdilution method; details: time 16-20 hrs
[15] = tested on: Streptococcus pneumoniae; assay: Selectivity ratio of MBC for Streptococcus pneumoniae PU 09 harboring mef gene to MIC for Streptococcus pneumoniae PU 09 harboring mef gene
[16] = tested on: Streptococcus pneumoniae; assay: Bactericidal activity against Streptococcus pneumoniae PU 09 harboring mef gene incubated for 16 to 20 hrs by CLSI based broth microdilution method; details: time 16-20 hrs
[17] = tested on: Streptococcus pneumoniae; assay: Selectivity ratio of MBC for Streptococcus pneumoniae ATCC 49619 to MIC for Streptococcus pneumoniae ATCC 49619
[18] = tested on: Streptococcus pneumoniae; assay: Antibacterial activity against Streptococcus pneumoniae PU 09 harboring mef gene incubated for 16 to 20 hrs by CLSI based broth microdilution method; details: time 16-20 hrs
[19] = tested on: Streptococcus pneumoniae; assay: Bactericidal activity against Streptococcus pneumoniae ATCC 49619 incubated for 16 to 20 hrs by CLSI based broth microdilution method; details: time 16-20 hrs
[20] = tested on: Streptococcus pneumoniae; assay: Antibacterial activity against Streptococcus pneumoniae ATCC 49619 incubated for 16 to 20 hrs by CLSI based broth microdilution method; details: time 16-20 hrs
[21] = tested on: Staphylococcus aureus; assay: Selectivity ratio of MBC for methicillin-resistant Staphylococcus aureus PU 20 harboring c-ermA gene to MIC for methicillin-resistant Staphylococcus aureus PU 20 harboring c-ermA gene

| Compound | MBC [1] | MIC [2] | Selectivity ratio [3] | MBC [4] | MIC [5] | Selectivity ratio [6] | MBC [7] | MIC [8] | Selectivity ratio [9] | MBC [10] | MIC [11] | Selectivity ratio [12] | MBC [13] | MIC [14] | Selectivity ratio [15] | MBC [16] | Selectivity ratio [17] | MIC [18] | MBC [19] | MIC [20] | other results |
| --- | --- | --- | --- | --- | --- | --- | --- | --- | --- | --- | --- | --- | --- | --- | --- | --- | --- | --- | --- | --- | --- |
| CC[C@H]1OC(=O)[C@H](C)[C@@H](OC(=O)CCN2CCN(c3cc4c(cc3F)c(=O)c(C(=O)O)cn4C3CC3)CC2)[C@H](C)[C@@H](O[C@@H]2O[C@H](C)C[C@H](N(C)C)[C@H]2O)[C@](C)(OC)C[C@@H](C)/C(=N\OCC#Cc2cncc(C(=O)NC)c2)[C@H](C)[C@H]2OC(=O)O[C@@]21C | > 256 µg/mL | > 256 µg/mL | >4 | > 256 µg/mL | 64 µg/mL (≈ 53.9 µM) | >8 | > 128 µg/mL | 16 µg/mL (≈ 13.5 µM) | 1 | 4 µg/mL (≈ 3.37 µM) | 4 µg/mL (≈ 3.37 µM) | 8 | 32 µg/mL (≈ 26.9 µM) | 4 µg/mL (≈ 3.37 µM) | 4 | 0.5 µg/mL (≈ 0.421 µM) | 8 | 0.12 µg/mL (≈ 0.101 µM) | 0.25 µg/mL (≈ 0.21 µM) | 0.03 µg/mL (≈ 0.0252 µM) | – |
| CC[C@H]1OC(=O)[C@H](C)[C@@H](OC(=O)CCNCCCCNc2cc3c(cc2F)c(=O)c(C(=O)O)cn3C2CC2)[C@H](C)[C@@H](O[C@@H]2O[C@H](C)C[C@H](N(C)C)[C@H]2O)[C@](C)(OC)C[C@@H](C)/C(=N\OC)[C@H](C)[C@H]2OC(=O)O[C@@]21C | > 256 µg/mL | 128 µg/mL (≈ 124 µM) | 2 | 8 µg/mL (≈ 7.75 µM) | 4 µg/mL (≈ 3.88 µM) | 2 | 0.016 µg/mL (≈ 0.0155 µM) | ≤ 0.008 µg/mL | 2 | 32 µg/mL (≈ 31 µM) | 16 µg/mL (≈ 15.5 µM) | 2 | 16 µg/mL (≈ 15.5 µM) | 8 µg/mL (≈ 7.75 µM) | 1 | 0.5 µg/mL (≈ 0.484 µM) | 2 | 0.5 µg/mL (≈ 0.484 µM) | 0.125 µg/mL (≈ 0.121 µM) | 0.062 µg/mL (≈ 0.0601 µM) | – |
| CC[C@H]1OC(=O)[C@H](C)[C@@H](OC(=O)Cc2ccccn2)[C@H](C)[C@@H](O[C@@H]2O[C@H](C)C[C@H](N(C)C)[C@H]2O)[C@](C)(OC(=O)CCN2CCN(c3c(F)cc4c(=O)c(C(=O)O)cn(C5CC5)c4c3OC)CC2C)C[C@@H](C)CN(C)[C@H](C)[C@@H](O)[C@]1(C)O (stereo not given in full) | 8 µg/mL (≈ 7.02 µM) | 8 µg/mL (≈ 7.02 µM) | – | > 256 µg/mL | 128 µg/mL (≈ 112 µM) | >8 | > 64 µg/mL | 8 µg/mL (≈ 7.02 µM) | 1 | 0.5 µg/mL (≈ 0.439 µM) | 0.5 µg/mL (≈ 0.439 µM) | 1 | 8 µg/mL (≈ 7.02 µM) | 8 µg/mL (≈ 7.02 µM) | 4 | 8 µg/mL (≈ 7.02 µM) | 2 | 2 µg/mL (≈ 1.76 µM) | 1 µg/mL (≈ 0.878 µM) | 0.5 µg/mL (≈ 0.439 µM) | Selectivity ratio [21]: 1 |
| CC[C@H]1OC(=O)[C@H](C)[C@@H](OC(=O)CCNCCCCNc2cc3c(cc2F)c(=O)c(C(=O)O)cn3C2CC2)[C@H](C)[C@@H](O[C@@H]2O[C@H](C)C[C@H](N(C)C)[C@H]2O)[C@](C)(OC)C[C@@H](C)/C(=N\OCCCc2cncc(C(=O)NC)c2)[C@H](C)[C@H]2OC(=O)O[C@@]21C | > 256 µg/mL | > 256 µg/mL | 1 | 32 µg/mL (≈ 26.8 µM) | 32 µg/mL (≈ 26.8 µM) | >8 | > 2 µg/mL | 0.25 µg/mL (≈ 0.209 µM) | 2 | 16 µg/mL (≈ 13.4 µM) | 8 µg/mL (≈ 6.7 µM) | 4 | 0.12 µg/mL (≈ 0.1 µM) | 0.03 µg/mL (≈ 0.0251 µM) | >=4 | 0.03 µg/mL (≈ 0.0251 µM) | >=1 | ≤ 0.008 µg/mL | 0.008 µg/mL (≈ 0.0067 µM) | ≤ 0.008 µg/mL | – |
| CC[C@H]1OC(=O)[C@H](C)[C@@H](OC(=O)CCN2CCN(c3nc4c(cc3F)c(=O)c(C(=O)O)cn4CC)CC2)[C@H](C)[C@@H](O[C@@H]2O[C@H](C)C[C@H](N(C)C)[C@H]2O)[C@](C)(OC)C[C@@H](C)/C(=N\OCC#Cc2cncc(C(=O)NC)c2)[C@H](C)[C@H]2OC(=O)O[C@@]21C | > 256 µg/mL | > 256 µg/mL | >4 | > 256 µg/mL | 64 µg/mL (≈ 54.4 µM) | >8 | > 32 µg/mL | 4 µg/mL (≈ 3.4 µM) | 1 | 32 µg/mL (≈ 27.2 µM) | 32 µg/mL (≈ 27.2 µM) | >8 | > 32 µg/mL | 4 µg/mL (≈ 3.4 µM) | 4 | 0.25 µg/mL (≈ 0.212 µM) | 1 | 0.06 µg/mL (≈ 0.051 µM) | 0.03 µg/mL (≈ 0.0255 µM) | 0.03 µg/mL (≈ 0.0255 µM) | – |
